Holding throughout (assay): Postemergence foliar-applied herbicidal mixtures, weeds common to row crops
Holding throughout (assay type): in vivo

Assay [1] has as its system OEOBI Oenothera biennis (evening primrose). An excerpt:
(§1) Evaluation of Postemergence Foliar-Applied Herbicidal Mixtures for Control of Weeds Common to Row Crops such as Corn and Soybeans. Seeds or nutlets of the desired test plant species were planted in a soil matrix prepared by mixing a loam or sandy loam soil (e.g., 28.6 percent silt, 18.8 percent clay, and 52.6 percent sand, with a pH of about 5.8 and an organic matter content of about 1.8 percent) and calcareous grit in an 80 to 20 ratio. The soil matrix was contained in plastic pots with a surface area of 84.6 cm^2 and a volume of 560 cubic centimeters (cm^3). When required to ensure good germination and healthy plants, a fungicide treatment and/or other chemical or physical treatment was applied. The plants were grown for 7-31 d in a greenhouse with an approximate 15 h photoperiod which was maintained at about 23-29° C. during the day and 22-28° C. during the night. Nutrients (Peters Excel® 15-5-15 5-Ca 2-Mg) and water were added on a regular basis and supplemental lighting was provided with overhead metal halide 1000-Watt lamps as necessary. The plants were employed for testing when they reached the first, second, or third true leaf stage.
(§2) Treatment requirements were calculated based upon the rates being tested, the concentration of active ingredient or acid equivalent in the formulation, and a 12 mL application volume at a rate of 187 L/ha.
(§3) Treatments consisted of the potassium (K^+) salt of 4-amino-3-chloro-6-(4-chloro-2-fluoro-3-methoxyphenyl)-pyridine-2-carboxylic acid (Cmpd 4) formulated as a soluble liquid (SL), the propargyl ester of 4-amino-3-chloro-6-(4-chloro-2-fluoro-3-methoxyphenyl)-pyridine-2-carboxylic acid (Cmpd 2) as technical grade material, or the benzyl ester of 4-amino-3-chloro-6-(4-chloro-2-fluoro-3-methoxyphenyl)-pyridine-2-carboxylic acid (Cmpd 3) as technical grade material and quizalofop-p-ethyl (Assure® II) alone and in combination. Forms of compound of formula (I) and quizalofop-P-ethyl were applied on an acid equivalent basis.
(§4) For treatments comprised of formulated compounds, measured amounts of compounds were placed individually in 25 mL glass vials and diluted in a volume of 1.5% (v/v) Agri-Dex® crop oil concentrated to obtain 6× stock solutions. […] Application solutions were prepared by adding an appropriate amount of each stock solution (typically 2 mL) and diluted to the appropriate final concentrations with the addition of an appropriate amount of an aqueous mixture of 1.5% (v/v) crop oil concentrate and water so that the final spray solutions contained 1.25+/−0.05% (v/v) crop oil concentrate.
(§5) For treatments comprised of formulated and technical compounds, weighed amounts of the technical materials were placed individually in 25 mL glass vials and dissolved in a volume of 97:3 v/v acetone/DMSO to obtain 6× stock solutions, and measured amounts of the formulated compounds were placed individually in 25 mL glass vials and diluted in a volume of 1.5% (v/v) crop oil concentrate or water to obtain 6× stock solutions. […] Application solutions were prepared by adding an appropriate amount of each stock solution (e.g., 2 mL) and diluted to the appropriate final concentrations with the addition of an appropriate amount of an aqueous mixture of 1.5% (v/v) crop oil concentrate and water so that the final spray solutions contained 1.25% (v/v) crop oil concentrate. When required, additional water and/or 97:3 v/v acetone/DMSO can be added to individual application solutions so that the final acetone and DMSO concentrations of the application solutions being compared are 16.2% and 0.5%, respectively.
(§6) All stock solutions and applications solutions were visually inspected for compound compatibility prior to application. Compound requirements are based upon a 12 mL application volume at a rate of 187 liters per hectare (L/ha). […]

The test system of assay [2] is SORHA Sorghum halepense (L.) Pers. (Johnsongrass). The conditions noted are these: Quizalofop-P-ethyl 7.125 g ae/ha.
Source text: as §1, §2, §3, §4, §5, §6

Assay [3] deals with LOLMU Lolium multiflorum Lam. (Italian ryegrass). The conditions noted are these: Quizalofop-P-ethyl 3.56 g ae/ha.
Source text: as §1, §2, §3, §4, §5, §6

Assay [4] deals with AVEFA Avena fatua L. (wild oat).
Source text: as §1, §2, §3, §4, §5, §6

The subject of assay [5] is DIGSA Digitaria sanguinalis (L.) Scop. (large crabgrass). Conditions: Quizalofop-P-ethyl 3.56 g ae/ha.
Source text: as §1, §2, §3, §4, §5, §6

The mark [6] stands for this setting: Quizalofop-P-ethyl 7.125 g ae/ha.
The mark [7] stands for this setting: Quizalofop-P-ethyl 14.25 g ae/ha.

The structures appear in SMILES notation.

`CCOC(=O)[C@@H](C)Oc1ccc(Oc2cnc3cc(Cl)ccc3n2)cc1` [Quizalofop-P-ethyl, quizalofop-P-ethyl]: the “Percent (%) injury rated visually 14 DAA Obs” value is 0% in assay [1] (setting [6]); 0% in assay [1] (setting [7]); 0% in assay [1] (Quizalofop-P-ethyl 28.5 g ae/ha); 50% in assay [2]; 0% in assay [3]; 15% in assay [4] (Quizalofop-P-ethyl 3.56 g ae/ha). Moreover, the figures for the “Percent (%) injury rated visually 14 DAA Obs” value in assay [4] (setting [6]), in assay [4] (setting [7]) and in assay [5] were 15%, 40% and 20%, respectively.
